According to patent US20070123500A1, “Prodrugs of ERbeta-selective substances, processes for their preparation and pharmaceutical compositions comprising these compounds” (priority 2005, published 2007):

What was measured:
human carboanhydrase I = human carboanhydrase I (Homo sapiens, UniProt P00915); experiment: Carboanhydrase inhibition, photometric, nitrophenyl acetate conversion (CA I); type: biochemical; settings: read-out: CAI IC50
Excerpt: (§1) b) Carboanhydrase Inhibition—Test Principle and Experimental Description:
(§2) Photometric determination of the inhibition of human carboanhydrase I or II by sulphonamides or sulphamates on microtitre plates with the aid of the enzymatic conversion of nitrophenyl acetate with a colour change from colourless to yellow.

human carboanhydrase II = human carboanhydrase II (Homo sapiens, UniProt P00918); experiment: Carboanhydrase inhibition, photometric, nitrophenyl acetate conversion (CA II); type: biochemical; settings: read-out: CAII IC50
Excerpt: as §1, §2

[1] = Blood/plasma ratio in human erythrocytes; type: in vitro ADME; settings: human erythrocytes (blood)
Method: (§3) a) Blood-plasma Concentration Ratio—Test Principle and Experimental Description:
(§4) The SO2—NH2 group of the substances according to the invention can lead to a concentration in erythrocytes as a result of binding to carboanhydrases.
(§5) Freshly obtained, heparinized blood from a rat is treated with a defined amount of active compound. The active compound concentration in the plasma obtained therefrom is measured against a calibration curve of spiked (with a known active compound concentration) plasma. The blood-plasma ratio is calculated from the measured concentration and the theoretical concentration.
(§6) In contrast to the results published in WO 01/91797, the concentration ratios of the compounds according to the invention between erythrocytes and plasma are not in a range from 10-1000:1, but in the range <10:1.

[2] = Blood-plasma concentration ratio in rat blood; type: in vitro ADME; settings: freshly obtained heparinized whole blood
Method: as §3, §4, §5, §6

Chain of human carboanhydrase I (P00915 whole entry): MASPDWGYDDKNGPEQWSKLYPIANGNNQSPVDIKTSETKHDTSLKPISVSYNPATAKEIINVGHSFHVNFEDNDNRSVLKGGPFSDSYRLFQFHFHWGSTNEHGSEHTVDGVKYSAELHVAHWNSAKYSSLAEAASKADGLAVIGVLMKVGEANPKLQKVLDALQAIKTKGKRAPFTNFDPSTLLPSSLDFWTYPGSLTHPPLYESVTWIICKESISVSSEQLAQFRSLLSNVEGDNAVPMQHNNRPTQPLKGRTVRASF

Row | SMILES | IC50 (human carboanhydrase I) [nM] | IC50 (human carboanhydrase II) [nM] | blood plasma ratio [1] | blood plasma ratio [2]
1 | C=C[C@]12CC[C@]3(C)C[C@H](OC(=O)c4cccc(S(N)(=O)=O)c4)C[C@H]3[C@@H]1CCc1cc(O)ccc12 [3-Hydroxy-9α-vinyloestra-1,3,5(10)-trien-16α-yl 3′-sulphamoylbenzoate] | 3400 | 490 | – | –
2 | C=C[C@]12CC[C@]3(C)[C@@H](F)[C@H](OC(=O)c4cccc(S(N)(=O)=O)c4)C[C@H]3[C@@H]1CCc1cc(O)ccc12 [17β-Fluoro-3-hydroxy-9α-vinyloestra-1,3,5(10)-trien-16α-yl 3′-sulphamoylbenzoate] | 3700 | 720 | 1.2 | ~3.7
3 | C=C[C@]12CC[C@]3(C)[C@@H](F)[C@H](OC(=O)c4ccccc4)C[C@H]3[C@@H]1CCc1cc(O)ccc12 [17β-Fluoro-3-hydroxy-9α-vinyloestra-1,3,5(10)-trien-16α-yl benzoate, reference compound] | > 10000 | > 10000 | – | –
4 | C[C@]12CC[C@@H]3c4ccc(OS(N)(=O)=O)cc4CC[C@H]3[C@@H]1CC[C@@H]2O [Oestradiol 3-sulphamate, reference compound] | 157 ± 10.6 | – | – | –
